Assay [1] has as its system HepG2. The assay can be described thus: Cytotoxicity against human HepG2 cells assessed as inhibition of cell proliferation incubated for 48 hrs by MTT assay. It counts as functional, cell-based. To be noted: HepG2, 48 h. For orientation: Tetrazolium assays rely on reduction of a dye to a coloured formazan, in cell work by metabolically active cells.
The subject of assay [2] is Hep 3B2. The assay can be described thus: Induction of apoptosis in human Hep3B cells assessed as late apoptotic cells at 3 uM incubated for 48 hrs by Annexin V-FITC/PI staining based flow cytometry analysis (reference value: […]%). It counts as functional. Background: A flow cytometer gives signals particle by particle.
Assay [3] deals with Hep 3B2. The assay can be described thus: Induction of apoptosis in human Hep3B cells assessed as viable cells at 3 uM incubated for 48 hrs by Annexin V-FITC/PI staining based flow cytometry analysis (reference value: 87.1%). It counts as functional. To be noted: read-out: Activity.
Assay [4] has as its system Hep 3B2. The assay can be described thus: Cytotoxicity against human Hep3B cells assessed as inhibition of cell proliferation incubated for 48 hrs by MTT assay. The assay is classed as functional, cell-based.
The test system of assay [5] is Hep 3B2. The assay can be described thus: Induction of apoptosis in human Hep3B cells assessed as necrotic cells at 3 uM incubated for 48 hrs by Annexin V-FITC/PI staining based flow cytometry analysis (reference value: 6.12%). The assay is classed as functional.
The test system of assay [6] is Hep 3B2. Description: Induction of apoptosis in human Hep3B cells assessed as early apoptotic cells at 3 uM incubated for 48 hrs by Annexin V-FITC/PI staining based flow cytometry analysis (reference value: 1.26%). It counts as functional.
The subject of assay [7] is Hep 3B2. The assay can be described thus: Induction of apoptosis in human Hep3B cells assessed as early apoptotic cells at 3 uM incubated for 48 hrs by Annexin V-FITC/PI staining based flow cytometry analysis (reference value: 4.54%). The assay is classed as functional.
The test system of assay [8] is Hep 3B2. Description: Induction of apoptosis in human Hep3B cells assessed as late apoptotic cells at 3 uM incubated for 48 hrs by Annexin V-FITC/PI staining based flow cytometry analysis (reference value: 0.117%). The assay is classed as functional.
In assay [9] the test system is Hep 3B2. The assay can be described thus: Induction of apoptosis in human Hep3B cells assessed as necrotic cells at 3 uM incubated for 48 hrs by Annexin V-FITC/PI staining based flow cytometry analysis (reference value: 0%). The assay is classed as functional.
For assay [10], the system named is Hep 3B2. Description: Induction of apoptosis in human Hep3B cells assessed as viable cells at 3 uM incubated for 48 hrs by Annexin V-FITC/PI staining based flow cytometry analysis (reference value: 95.3%). It counts as functional. To be noted: read-out: Activity.

A value given as a limit tells only on which side of the number the result lay.

In general, IC50 refers to the concentration needed to halve the response being measured.

Consider `COc1c(-c2ccc(O)c(CC=C(C)C)c2)oc2cc(O)cc(O)c2c1=O`, for which the IC50 turned out to be 50.5 µM in [1] and 0.99 µM in [4]. The Activity in assay [2] stood at 8.68%; in assay [5] it was 2.29%; in [6], 1.97%. Moreover, the viability at 3 µM in [3] was found to be 87.1%.

On to `COc1c(-c2ccc(O)c(O)c2)oc2c(CC=C(C)C)c(O)c(CC=C(C)C)c(O)c2c1=O`, for which the results for the IC50 in assay [1] and in assay [4] were 43.3 µM and 17.7 µM, respectively.

On to `COc1c(-c2cc(O)c(O)c(CC=C(C)C)c2)oc2c3c(cc(O)c2c1=O)OC(C(C)(C)O)C3` (centres undefined), for which the IC50 in assay [1] is more than 50 µM; in assay [4], 3.62 µM.

`CC(C)=CCc1cc([C@H]2Oc3cc(O)ccc3C[C@H]2O)cc(CC=C(C)C)c1O`: the half-maximal inhibitory concentration (IC50) in assay [1] and in assay [4] was more than 50 µM each time.

With `COc1c(-c2cc(O)c(O)c(CC=C(C)C)c2)oc2c(CC=C(C)C)c(O)cc(O)c2c1=O`, the concentration for half-maximal inhibition (IC50) stood at 32.6 µM in [1] and 1.07 µM in assay [4]. Besides, the Activity in assay [7] came to 41.2%; in assay [8] it was 9.35%; in assay [9], 0.121%. For the same compound, the viability at 3 µM in assay [10] was found to be 49.3%.

Take `C=C(C)C(O)Cc1cc(-c2oc3c(CC=C(C)C)c(O)cc(O)c3c(=O)c2OC)cc(O)c1O` (centres undefined): the half-inhibitory concentration (IC50) in assay [1] was more than 50 µM; in [4], 1.05 µM. In addition, the Activity in assay [2] worked out at 76%; in assay [5], 2.75%; in [6], 6.97%. In addition, the viability at 3 µM in assay [3] worked out at 14.2%.

For `COC1=C(c2ccc(O)cc2)Oc2c(CC=C(C)C)c(O)cc(O)c2C1O` (centres undefined), the IC50 turned out to be 13.6 µM in assay [1] and 3.96 µM in assay [4].

Regarding `COc1c(-c2ccc(O)c(O)c2)oc2c(CC=C(C)C)c(O)cc(O)c2c1=O`, the 50% inhibitory concentration (IC50) in assay [1] was more than 50 µM; in [4] it was 2.39 µM.

With `CC(C)=CCc1cc([C@H]2Oc3c(CC=C(C)C)c(O)cc(O)c3C(=O)[C@@H]2O)cc(CC=C(C)C)c1O`, the IC50 in [1] and in [4] was more than 50 µM throughout.

Consider `CC(C)=CCc1cc([C@@H]2Oc3c(CC=C(C)C)c(O)cc(O)c3C(=O)[C@H]2O)cc(CC=C(C)C)c1O`, for which the IC50 in assay [1] and in [4] was more than 50 µM each time.

`COc1c(-c2cc(O)c(O)c(CC=C(C)C)c2CC=C(C)C)oc2cc(O)cc(O)c2c1=O`: the half-inhibitory concentration (IC50) in [1] is 39.1 µM; in [4], 33.5 µM.

On to `COc1c(-c2ccc(O)c(O)c2)oc2c3c(c(CC=C(C)C)c(O)c2c1=O)OC(C(C)(C)O)C3` (centres undefined), for which the concentration for half-maximal inhibition (IC50) is 26.9 µM in assay [1] and 8.89 µM in assay [4].

In the case of `COc1c(-c2ccc(O)c(CC=C(C)C)c2)oc2c(CC=C(C)C)c(O)cc(O)c2c1=O`, the IC50 in [1] is more than 50 µM; in assay [4], 2.31 µM. The Activity in assay [7] is 37.4%; in assay [8], 10.7%; in assay [9] it was 0.097%. Also, the viability at 3 µM in assay [10] stood at 51.9%.

`CC1(C)C=Cc2cc(-c3oc4cc(O)cc(O)c4c(=O)c3O)cc(O)c2O1`: the half-inhibitory concentration (IC50) in [1] was more than 50 µM; in [4], 28.2 µM.

Regarding `C=C(C)C(O)Cc1c(O)c(CC=C(C)C)c2oc(-c3ccc(O)c(O)c3)c(OC)c(=O)c2c1O` (centres undefined), the IC50 in assay [1] is more than 50 µM; in [4] it was 37.1 µM.

As to `CC1(C)Oc2ccc(-c3oc4cc(O)cc(O)c4c(=O)c3O)cc2CC1O` (centres undefined), the half-maximal inhibitory concentration (IC50) in [1] is more than 50 µM; in assay [4] it was 9.55 µM.

For the compound `COc1c(-c2ccc(O)c(O)c2)oc2c(C/C=C(\C)CCC=C(C)C)c(O)cc(O)c2c1=O`, the IC50 in assay [1] is 30.4 µM; in assay [4] it was 4.8 µM.

For `C=C(C)C(O)Cc1cc(-c2oc3c(CC=C(C)C)c(O)cc(O)c3c(=O)c2OC)ccc1O` (centres undefined), the half-maximal inhibitory concentration (IC50) in assay [1] was determined as 42.2 µM; in assay [4] it was 0.41 µM. Also, the Activity in [2] worked out at 19.7%; in [5] it was 0.923%; in assay [6], 19.6%. Further, in [3], the viability at 3 µM came to 59.7%.

With `COc1c(-c2cc(O)c3c(c2)CC(C(C)(C)O)O3)oc2c(CC=C(C)C)c(O)cc(O)c2c1=O` (centres undefined), the figures for the IC50 in assay [1] and in [4] were 47.4 µM and 0.49 µM, respectively. Further, the Activity in assay [2] is given as 48.2%; in assay [5] it was 2.55%; in assay [6], 15.4%. The viability at 3 µM in [3] was 33.8%.

For `COc1c(-c2cc(O)c3c(c2)CC(O)C(C)(C)O3)oc2c(CC=C(C)C)c(O)cc(O)c2c1=O` (centres undefined), the figures for the IC50 in [1] and in assay [4] were 49.1 µM and 0.63 µM, respectively. Moreover, the figures for the Activity in [2], in [5] and in assay [6] were 52.4%, 2.34% and 21.9%, respectively. The viability at 3 µM in assay [3] worked out at 23.3%.

Turning to `COc1c(-c2cc3c(c(O)c2CC=C(C)C)OC(C)(C)C=C3)oc2c(CC=C(C)C)c(O)cc(O)c2c1=O`, the IC50 in assay [1] was determined as 30.7 µM; in assay [4], 6.37 µM.

In the case of `CC(C)=CCc1cc(-c2oc3c(CC=C(C)C)c(O)cc(O)c3c(=O)c2O)ccc1O` [BROUSSOFLAVONOL F], the 50% inhibitory concentration (IC50) in assay [1] was 30.8 µM; in assay [4] it was 1.15 µM. Also, the Activity was found to be 19.1% in assay [7], 25.5% in assay [8] and 0.251% in assay [9]. Moreover, in assay [10], the viability at 3 µM was found to be 55.1%.

With `CC(C)=CCc1cc(-c2oc3cc(O)cc(O)c3c(=O)c2O)ccc1O` [ISOLICOFLAVONOL], the results for the IC50 in [1] and in [4] were 44.7 µM and 11.5 µM, respectively.

Regarding `CNC(=O)c1cc(Oc2ccc(NC(=O)Nc3ccc(Cl)c(C(F)(F)F)c3)cc2)ccn1` [SORAFENIB], in [4], the IC50 turned out to be 8.55 µM.

For the origin of these results see ChEMBL document CHEMBL5352479, “Prenylated flavonoids with significant anti-hepatoma activity from Daphne giraldii and effects on Fibroblast Growth Factor Receptor 1 (FGFR1)” (Eur J Med Chem, 2023).
